From patent publication US9828350B2, “5,6-dihydro-2H-[1,4]oxazin-3-yl-amine derivatives useful as inhibitors of beta-secretase (BACE)” (Janssen Pharmaceutica NV, priority 2010, dated 2017)

How the values were obtained:
Abeta 1-42 = test: Cellular αLisa assay in SKNBE2 cells, Abeta 1-42; type: cell-based, human; settings: incubated for 18 hours; for IC50: Homo sapiens, SKNBE2, 18 h, read-out: Cellular αLisa assay in SKNBE2 cells Abeta 42 pIC50 (converted)
Description: (§1) Cellular αLisa Assay in SKNBE2 Cells
(§2) In two αLisa assays the levels of Abeta total and Abeta 1-42 produced and secreted into the medium of human neuroblastoma SKNBE2 cells are quantified. The assay is based on the human neuroblastoma SKNBE2 expressing the wild type Amyloid Precursor Protein (hAPP695). The compounds are diluted and added to these cells, incubated for 18 hours and then measurements of Abeta 1-42 and Abeta total are taken. Abeta total and Abeta 1-42 are measured by sandwich αLisa. αLisa is a sandwich assay using biotinylated antibody AbN/25 attached to streptavidin coated beads and antibody Ab4G8 or cAb42/26 conjugated acceptor beads for the detection of Abeta total and Abeta 1-42 respectively. In the presence of Abeta total or Abeta 1-42, the beads come into close proximity. The excitation of the donor beads provokes the release of singlet oxygen molecules that trigger a cascade of energy transfer in the acceptor beads, resulting in light emission. Light emission is measured after 1 hour incubation (excitation at […] and emission at 615 nm).

[1] = target: recombinant BACE1 protein (Homo sapiens, UniProt P56817); test: Biochemical FRET based assay; settings: recombinant BACE1 1 μg/ml, 120 minutes at room temperature, pH 5.0; for IC50: read-out: Biochemical FRET based assay pIC50 (converted)
Chain of recombinant BACE1 protein (P56817 46-501): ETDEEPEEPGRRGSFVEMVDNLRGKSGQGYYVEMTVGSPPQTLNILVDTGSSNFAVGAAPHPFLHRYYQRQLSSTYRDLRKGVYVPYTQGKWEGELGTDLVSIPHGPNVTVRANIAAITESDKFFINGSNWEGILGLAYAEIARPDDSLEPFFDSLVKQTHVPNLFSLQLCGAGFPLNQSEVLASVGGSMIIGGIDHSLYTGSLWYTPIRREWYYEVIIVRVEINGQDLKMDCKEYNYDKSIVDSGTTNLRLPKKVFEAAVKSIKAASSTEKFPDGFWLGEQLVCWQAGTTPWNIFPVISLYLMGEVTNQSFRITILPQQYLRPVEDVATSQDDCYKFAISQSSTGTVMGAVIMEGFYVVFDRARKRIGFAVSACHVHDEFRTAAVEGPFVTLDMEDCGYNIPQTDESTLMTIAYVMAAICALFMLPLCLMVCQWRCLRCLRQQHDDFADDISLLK
Description: Biochemical FRET Based Assay
This assay is a Fluorescence Resonance Energy Transfer Assay (FRET) based assay. The substrate for this assay is an APP derived 13 amino acids peptide that contains the ‘Swedish’ Lys-Met/Asn-Leu mutation of the amyloid precursor protein (APP) beta-secretase cleavage site. This substrate also contains two fluorophores: (7-methoxycoumarin-4-yl) acetic acid (Mca) is a fluorescent donor with excitation wavelength at 320 nm and emission at 405 nm and 2,4-Dinitrophenyl (Dnp) is a proprietary quencher acceptor. […] Upon cleavage by BACE1, the fluorophore Mca is separated from the quenching group Dnp, restoring the full fluorescence yield of the donor. The increase in fluorescence is linearly related to the rate of proteolysis.
Briefly in a 384-well format recombinant BACE1 protein in a final concentration of 1 μg/ml is incubated for 120 minutes at room temperature with […] substrate in incubation buffer (40 mM Citrate buffer pH 5.0, 0.04% PEG, 4% DMSO) in the absence or presence of compound. Next the amount of proteolysis is directly measured by fluorescence measurement at T=0 and T=120 (excitation at 320 nm and emission at 405 nm). Results are expressed in RFU (Relative Fluorescence Units), as difference between T120 and TO.

Abeta total = test: Cellular αLisa assay in SKNBE2 cells, Abeta total; type: cell-based, human; settings: incubated for 18 hours; for IC50: Homo sapiens, SKNBE2, 18 h, read-out: Cellular αLisa assay in SKNBE2 cells Abetatotal pIC50 (converted)
Description: as §1, §2

Row | Cellular αLisa assay in SKNBE2 cells Abeta 42 pIC50 (Abeta 1-42) | IC50 [1] [µM] | Cellular αLisa assay in SKNBE2 cells Abetatotal pIC50 (Abeta total) | IC50 (Abeta 1-42) [µM] | IC50 (Abeta total) [µM] | Biochemical FRET based assay pIC50 [1] | SMILES
1 | <5 | > 30.2 | <5 |  |  |  | COc1cncc(-c2cccc(C3(C)N=C(N)COC3C(F)(F)F)c2)c1 (single isomer, unassigned) [Compound 102]
2 | 6.38 | 2.09 | 6.35 |  |  |  | COc1cncc(-c2cccc(C3(C)N=C(N)COC3C(F)(F)F)c2)c1 (single isomer, unassigned) [Compound 103]
3 | 5.8 | 9.33 | 5.82 |  |  |  | COc1cncc(-c2cccc(C3(C)N=C(N)COC3C(F)(F)F)c2)c1 (single isomer, unassigned) [Compound 104]
4 |  | 1.48 |  | 0.437 | 0.49 |  | CC1(c2cc(-c3cncnc3)ccc2F)N=C(N)COC1(F)C(F)(F)F (single isomer, unassigned) [Compound 111]
5 | 5.18 | > 30.2 | 5.06 |  |  |  | CC1(c2cccc(-c3cncnc3)c2)N=C(N)COC1(F)C(F)(F)F (single isomer, unassigned) [Compound 116]
6 | 5.62 | 11.2 | 5.67 |  |  |  | COc1cncc(-c2cccc(C3(C)N=C(N)COC3(F)C(F)(F)F)c2)c1 (single isomer, unassigned) [Compound 119]
7 | 5.19 |  | 5.04 |  |  | <4.52 | CC1(c2cccc(NC(=O)c3ccc(Cl)cn3)c2)N=C(N)COC1F (single isomer, unassigned) [Compound 122]
8 | <5 | > 30.2 | <5 |  |  |  | CC1(c2cc(-c3cncnc3)ccc2F)N=C(N)COC1F (single isomer, unassigned) [Compound 127]
9 | 7.54 | 0.0355 | 7.52 |  |  |  | COc1cnc(C(=O)Nc2cccc(C3(C)N=C(N)COC3F)c2)cn1 (single isomer, unassigned) [Compound 131]
10 | 6.35 | 1.1 | 6.38 |  |  |  | COc1cnc(C(=O)Nc2cccc(C3(C)N=C(N)COC3F)c2)cn1 (single isomer, unassigned) [Compound 132]
11 | 8.18 | 0.0257 | 8.21 |  |  |  | CC1(c2cc(NC(=O)c3ncc(Cl)cc3F)ccc2F)N=C(N)COC1F (single isomer, unassigned) [Compound 133]
12 | <5 | > 30.2 | <5 |  |  |  | CC1(c2cccc(-c3cncnc3)c2)N=C(N)COC1(F)C(F)(F)F (single isomer, unassigned) [Compound 139]
13 | <5 | > 30.2 | <5 |  |  |  | CC1(c2cccc(-c3cncnc3)c2)N=C(N)COC1(F)C(F)(F)F (single isomer, unassigned) [Compound 140]
14 | <5 | > 30.2 | <5 |  |  |  | COc1cncc(-c2cccc(C3(C)N=C(N)COC3(F)C(F)(F)F)c2)c1 (single isomer, unassigned) [Compound 141]
15 | <5 | > 30.2 | <5 |  |  |  | COc1cncc(-c2cccc(C3(C)N=C(N)COC3(F)C(F)(F)F)c2)c1 (single isomer, unassigned) [Compound 142]
16 | <5 |  | <5 |  |  | <4.52 | CC1(c2cccc(NC(=O)c3ccc(Cl)cn3)c2)COC(F)(C(F)(F)F)C(N)=N1 (single isomer, unassigned) [Compound 154]

Row | Cellular αLisa assay in SKNBE2 cells Abeta 42 pIC50 (Abeta 1-42) | IC50 [1] [µM] | Cellular αLisa assay in SKNBE2 cells Abetatotal pIC50 (Abeta total) | IC50 (Abeta 1-42) [µM] | IC50 (Abeta total) [µM] | Biochemical FRET based assay pIC50 [1] | SMILES
17 | 7.02 |  | 7.1 |  |  | 5.69 | COc1cncc(-c2ccc(F)c(C3(C)COCC(N)=N3)c2)c1 (single isomer, unassigned) [Compound 156]
18 | <5 |  | <5 |  |  | <4.52 | CC1(c2cccc(NC(=O)c3ccc(Cl)cn3)c2)COC(F)(C(F)(F)F)C(N)=N1 (single isomer, unassigned) [Compound 157]
19 |  | > 30.2 |  | > 10 | > 10 |  | COc1cnc(C(=O)Nc2cccc(C3(C)COC(F)(C(F)(F)F)C(N)=N3)c2)cn1 (single isomer, unassigned) [Compound 158]
20 | 8.01 | 0.0407 | 8.05 |  |  |  | CC1(c2cccc(NC(=O)c3ncc(Cl)cc3F)c2)N=C(N)COC1F (single isomer, unassigned) [Compound 163]
21 | <5 | > 30.2 | <5 |  |  |  | CC1(c2cccc(NC(=O)c3ncc(Cl)cc3F)c2)N=C(N)COC1F (single isomer, unassigned) [Compound 164]
22 | 8.11 | 0.0219 | 8.07 |  |  |  | CC1(c2cccc(NC(=O)c3ncc(Cl)cc3F)c2)N=C(N)COC1(F)C(F)(F)F (single isomer, unassigned) [Compound 173]
23 | 5.18 | 0.295 | 5.24 |  |  |  | CC1(c2cccc(NC(=O)c3ncc(Cl)cc3F)c2)N=C(N)COC1(F)C(F)(F)F (single isomer, unassigned) [Compound 175]
24 | 6.34 | 1.29 | 6.38 |  |  |  | COc1cnc(C(=O)Nc2cccc(C3(C)N=C(N)COC3(F)C(F)(F)F)c2)cn1 (single isomer, unassigned) [Compound 176]
25 | 7.83 | 0.0251 | 7.84 |  |  |  | COc1cnc(C(=O)Nc2cccc(C3(C)N=C(N)COC3(F)C(F)(F)F)c2)cn1 (single isomer, unassigned) [Compound 177]
26 | 5.33 | 20 | 5.35 |  |  |  | COc1cnc(C(=O)Nc2cccc(C3(C)N=C(N)COC3(F)C(F)(F)F)c2)cn1 (single isomer, unassigned) [Compound 178]
27 | <5 | > 30.2 | <5 |  |  |  | COc1cnc(C(=O)Nc2cccc(C3(C)N=C(N)COC3(F)C(F)(F)F)c2)cn1 (single isomer, unassigned) [Compound 179]
28 | 6.91 | 0.437 | 6.93 |  |  |  | CC1(c2cccc(NC(=O)c3ccncn3)c2)N=C(N)COC1(F)C(F)(F)F (single isomer, unassigned) [Compound 188]
29 | 5.2 | > 30.2 | 5.25 |  |  |  | CC1(c2cccc(NC(=O)c3ccncn3)c2)N=C(N)COC1(F)C(F)(F)F (single isomer, unassigned) [Compound 190]
30 | 5.04 | 18.6 | 5.46 |  |  |  | Cc1ccc(C(=O)Nc2cccc(C3(C)N=C(N)COC3(F)C(F)(F)F)c2)nc1 (single isomer, unassigned) [Compound 191]
31 | <5 | > 30.2 | <5 |  |  |  | Cc1ccc(C(=O)Nc2cccc(C3(C)N=C(N)COC3(F)C(F)(F)F)c2)nc1 (single isomer, unassigned) [Compound 192]
32 | 7.19 | 0.0741 | 7.23 |  |  |  | Cc1ccc(C(=O)Nc2cccc(C3(C)N=C(N)COC3(F)C(F)(F)F)c2)nc1 (single isomer, unassigned) [Compound 193]
